Values of other authors in patent US20220409591A1, “Pharmaceutical Formulations for Managing Uric Acid Content in Human Body” (ZYCIE TECHNOLEGAL LLP, priority 2019, published 2022).

Legend:
[1] = known

Compound: Cc1nc(-c2ccc(OCC(C)C)c(C#N)c2)sc1C(=O)O [febuxostat, 2-[3-cyano-4-(2-methylpropoxy)phenyl]-4-methylthiazole-5-carboxylic acid]
- BCS class (poorly water-soluble drug): BCS Class II
- bioavailability [1]: more than 80%
- mean terminal elimination half-life [1]: 5 to 8 h
